One block for each compound: values may come before it.
Legend:
RORγ [1] = biological target: T1, RORγ (Homo sapiens (Human), UniProt P51449); assay: AlphaScreen inhibitory activity on RORγ protein; type: biochemical; settings: RORγ 200 nM, bSRC1-4 50 nM
Protocol: Experimental materials: target protein RORγ with the final concentration of 200 nM; experimental buffer (10×) MOPS (500 mM) PH 7.4, CHAPS (0.5 mM), NaF (500 mM), and
The mixture was centrifuged at room temperature at 1000 rpm for 1 minute to make the system fully mixed. After being wrapped in tin foil, the mixture was incubated in the dark for 1.5 hours.
Target sequence in this assay (P51449 whole entry): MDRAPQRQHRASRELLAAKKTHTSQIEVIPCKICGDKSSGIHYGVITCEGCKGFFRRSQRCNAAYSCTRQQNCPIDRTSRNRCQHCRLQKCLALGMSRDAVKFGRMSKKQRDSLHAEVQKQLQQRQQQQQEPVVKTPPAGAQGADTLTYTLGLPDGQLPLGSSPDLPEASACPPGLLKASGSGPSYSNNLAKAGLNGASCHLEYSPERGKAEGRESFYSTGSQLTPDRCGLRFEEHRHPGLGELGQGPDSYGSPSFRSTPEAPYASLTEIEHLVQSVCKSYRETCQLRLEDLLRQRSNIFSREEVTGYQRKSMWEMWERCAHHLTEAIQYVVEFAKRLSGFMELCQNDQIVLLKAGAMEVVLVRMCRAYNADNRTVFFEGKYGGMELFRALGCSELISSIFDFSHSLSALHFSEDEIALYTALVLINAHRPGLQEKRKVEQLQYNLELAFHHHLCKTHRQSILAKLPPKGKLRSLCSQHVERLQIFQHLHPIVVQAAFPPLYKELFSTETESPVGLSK

RORγ [2] = biological target: T1, RORγ; assay: Luciferase double reporter gene assay (Gal4-RORγLBD) in 293T cells; type: cell-based; settings: 24 hours of incubation
Protocol: The cells were cultured in a 96-well plate one day before transfection, with a cell density of 1.5×10^4 cells/well. After 24 hours of adherent growth, the cells were subjected to transient transfection by using the method of double reporter gene co-transfection with the transfection reagent of Lipo-fectamine 2000, where the transfection reagent and plasmids were diluted with Opti-MEM reagent, respectively. […] Each sample had 3 duplicate wells.
Target sequence in this assay (P51449 269-508): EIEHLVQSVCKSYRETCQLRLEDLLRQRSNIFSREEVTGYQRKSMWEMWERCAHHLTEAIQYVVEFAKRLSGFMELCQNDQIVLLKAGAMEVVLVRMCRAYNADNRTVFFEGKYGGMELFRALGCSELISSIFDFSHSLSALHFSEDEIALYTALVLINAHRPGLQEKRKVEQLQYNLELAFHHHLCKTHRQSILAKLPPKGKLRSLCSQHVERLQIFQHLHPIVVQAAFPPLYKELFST

RORγ [3] = biological target: T1, RORγ; assay: TSA detection (thermal shift); type: binding; settings: protein 10 μM
Protocol: Experimental materials: hRORγ protein, fluorescent dye Sypro Orange, 10p buffer, ultrapure water, and HSP-96 well reaction plates.
Experimental method: The diluted protein (with the final concentration of 10 μM), fluorescent dye (with the final concentration of 5×), 10× TSA buffer, and double distilled water were prepared into a mixed solution with final component volumes of 1 μL, 1 μL, 1 μL, and 2 μL, receptively. The mixed solution was transferred to an HSP-96 well reaction plate, 5 μL each well. The ligand, i.e., small molecule compound, was added, 5 μL per well, with the final concentration of 200 µM. The mixture was centrifuged at room temperature at 1000 rpm for 1 minute to make the system fully mixed. The mixture was placed on an ice bath in low light for more than 30 minutes, and after that, put into RT-PCR instrument for testing. The temperature was set from 30° C. to 80° C., and the mixture was detected every time the temperature was raised by 0.5° C. and every 5 seconds.
Target sequence in this assay (P51449 whole entry): as the sequence (P51449 whole entry) above

[4] = test system: 293T (human renal epithelial cell line transfected with adenovirus E1A gene, expressing SV40 large T antigen); assay: Cell-Titer GLO cell inhibition; type: cell-based; settings: Homo sapiens, HEK-293T; 293T; ~ = estimate; read-out: IC50
Protocol: (§1) Experimental materials: fluorescence signal detection instrument: EnSpire Alpha 2390 multifunctional microplate reader (produced by Perkin Elmer Company); 384-well bottom permeable microwell plate; Cell-Titer GLO luminescent reagent; cancer cells to be tested; medium and fetal bovine serum required for cell culture.
(§2) […]. After incubation with the compound for 72 to 144 hours, Cell-Titer GLO reagent 25-T was added to each well, and the plate was shaken for 20 minutes to lyse the cells. After incubation for 10 minutes, the cells were centrifuged for 1 minute, the signal value of luminescence 384 was measured. The inhibition curve was fitted by GraphPad Prism software to obtain IC50.

[5] = test system: A549 (non-small cell lung cancer); assay: Cell-Titer GLO cell inhibition; type: cell-based; settings: Homo sapiens
Protocol: as §1, §2

[6] = test system: Cos7 (African green monkey kidney cells); assay: Cell-Titer GLO cell inhibition; type: cell-based; settings: Chlorocebus sabaeus, COS-7
Protocol: as §1, §2

[7] = test system: H1975 (lung cancer cells); assay: Cell-Titer GLO cell inhibition; type: cell-based; settings: Homo sapiens, NCI-H1975
Protocol: as §1, §2

HFL-1 (lung fibroblasts) = assay: Cell-Titer GLO cell inhibition; type: cell-based; settings: Homo sapiens, HFL1
Protocol: as §1, §2

[8] = test system: HL-7702 (liver epithelial cells); assay: Cell-Titer GLO cell inhibition; type: cell-based; settings: Homo sapiens, L02
Protocol: as §1, §2

HT-29 (colon cancer) = assay: Cell-Titer GLO cell inhibition; type: cell-based; settings: Homo sapiens
Protocol: as §1, §2

[9] = test system: Hela (cervical cancer cells); assay: Cell-Titer GLO cell inhibition; type: cell-based; settings: Homo sapiens
Protocol: as §1, §2

[10] = test system: Hs578T (triple negative breast cancer); assay: Cell-Titer GLO cell inhibition; type: cell-based; settings: Homo sapiens, Hs-578T
Protocol: as §1, §2

[11] = test system: MCF-7 (ER + breast cancer); assay: Cell-Titer GLO cell inhibition; type: cell-based; settings: Homo sapiens, MCF7
Protocol: as §1, §2

[12] = test system: MDA-MB-231 (triple negative breast cancer); assay: Cell-Titer GLO cell inhibition; type: cell-based; settings: Homo sapiens
Protocol: as §1, §2

MV-4-11 (acute leukemia) = assay: Cell-Titer GLO cell inhibition; type: cell-based; settings: Homo sapiens, MV4-11
Protocol: as §1, §2

U2OS (osteosarcoma) = assay: Cell-Titer GLO cell inhibition; type: cell-based; settings: Homo sapiens
Protocol: as §1, §2

[13] = test system: VcaP (AR-positive prostate cancer); assay: Cell-Titer GLO cell inhibition; type: cell-based; settings: Homo sapiens, VCaP
Protocol: as §1, §2

[14] = test system: Du145 (AR-negative prostate cancer); assay: Cell-Titer GLO cell inhibition; type: cell-based; settings: Homo sapiens, DU-145
Text: (§3) The inhibition curve was fitted by GraphPad Prism software to obtain IC50.

[15] = test system: PC-3 (AR-negative prostate cancer); assay: Cell-Titer GLO cell inhibition; type: cell-based
Text: as §3

RORγ [16] = biological target: T1, RORγ; assay: ITC binding activity; settings: read-out: Kd ITC, 25° C., pH 7.5
Target sequence in this assay (P51449 whole entry): as above

[17] = Pharmacokinetics in SD rats
Protocol: MATERIALS: Pharmacokinetic analysis was performed by Medicilon Corporation in Shanghai. Twelve Sprague and Dawley rats were provided by Super-B&K laboratory animal Corp. Ltd in Shanghai.
Experimental method: The compound was dissolved in DMSO:PEG 400:20% HP-400 (5:40:55, v:v:v) to serve as a stock solution (0.4 mg/ml, intravenous injection; 1 mg/ml, oral administration). The stock solution was administrated orally to three SD rats at a dose of 10 mg/kg, and administrated intravenously to three SD rats at a single dose of 2 mg/kg. Blood was collected from the jugular vein before oral administration and at 0.25, 0.5, 1, 2, 4, 6, 8, and 24 hours after oral administration. Blood was collected from the jugular vein before intravenous injection and at 0.083, 0.25, 0.5, 1, 2, 4, 6, 8, and 24 hours after intravenous injection. About 200 μL of blood sample was collected into a heparinized tube and immediately centrifuged at 8000 rpm for 6 minutes, and the resulting plasma was stored at −80° C. until analysis.

RORγ [18] = biological target: T1, RORγ; assay: Specificity luciferase reporter assay in 293T cells, RORγ; settings: read-out: IC50 RORγ, reporter gene
Target sequence in this assay (P51449 269-508): as the sequence (P51449 269-508) above
Protocol: The cells were cultured in a 96-well plate one day before transfection, with a cell density of 1.5×10^4 cells/well. After 24 hours of adherent growth, the cells were subjected to transient transfection by using the method of double reporter gene co-transfection with the transfection reagent of Lipo-fectamine 2000, and the transfection reagent and plasmids were diluted with Opti-MEM reagent, respectively. Gal4-RORγLBD was 25 ng per well; PG5-luc gene was 25 ng per well; and Renilla was 5 ng per well. After 24 hours of co-transfection, different concentrations of compounds were added. After 24 hours of incubation, Luciferase double reporter gene detection kit was used to detect luminescence signals. Each sample had 3 duplicate wells. The IC50 value (half inhibitory concentration) was calculated by software.

[19] = SD rats, intravenous injection, 2 mg/kg
[20] = Sprague-Dawley, rat, in vivo, iv, 2 mg/kg
[21] = Sprague-Dawley, rat, in vivo, po, 10 mg/kg

IC50 (RORγ [1]): 5.17 µM
IC50 (RORγ [2]): 0.96 µM
ΔTm (RORγ [3]): 1.5 °C
Compound: Nc1ccccc1CC(=O)Nc1ccc(-c2ccc(C(O)(C(F)(F)F)C(F)(F)F)cc2F)cc1 [Example 6, 2-(2-aminophenyl)-N-(2′-fluoro-4′-(1,1,1,3,3,3-hexafluoro-2-hydroxypropan-2-yl)-[1,1′-biphenyl]-4-yl)acetamide]

Compound: CS(=O)(=O)c1ccc(CC(=O)Nc2ccc(-c3ccc(C(O)(C(F)(F)F)C(F)(F)F)cc3F)cc2)cc1 [Example 1, N-(2′-fluoro-4′-(1,1,1,3,3,3-hexafluoro-2-hydroxypropan-2-yl)-[1,1′-biphenyl]-4-yl)-2-(4-(methylsulfonyl)phenyl)acetamide]
IC50 (RORγ [1]): 2.28 ± 0.05 µM
IC50 (RORγ [2]): 0.12 µM
ΔTm (RORγ [3]): 7.8 °C
IC50 [4]: 15.3 µM
IC50 [5]: 22 µM
IC50 [6]: 40 µM
IC50 [7]: 24 µM
IC50 (HFL-1 (lung fibroblasts)): 30 µM
IC50 [8]: ~34.6 µM
IC50 (HT-29 (colon cancer)): 14.6 µM
IC50 [9]: 31.4 µM
IC50 [10]: 18.4 µM
IC50 [11]: 13.3 µM
IC50 [12]: ~34.7 µM
IC50 (MV-4-11 (acute leukemia)): 4.82 µM
IC50 (U2OS (osteosarcoma)): 34.5 µM
IC50 [13]: 12.8 µM
IC50 [14]: 19.1 µM
IC50 [15]: 16 µM
Kd (RORγ [16]): 0.56 µM
Cl [17, 19]: 3.2288 ± 0.2047 mL/min/kg
Vz [17, 19]: 3.54 ± 0.271 L/kg
F ([17]; SD rats, oral administration 10 mg/kg vs intravenous 2 mg/kg): 51.91%
Tmax ([17]; SD rats, oral administration, 10 mg/kg): 5.33 ± 2.31 h
AUC(0-inf) [17, 20]: 10400 ± 664 ng·h/mL
AUC(0-t) [17, 20]: 7660 ± 329 ng·h/mL
Cmax [17, 20]: 980 ± 53.2 ng/mL
Tmax [17, 20]: 0.08 h
half-life [17, 20]: 12.7 ± 1.21 h
AUC(0-inf) [17, 21]: 24500 ± 5810 ng·h/mL
AUC(0-t) [17, 21]: 21600 ± 3950 ng·h/mL
Cmax [17, 21]: 1420 ± 161 ng/mL
half-life [17, 21]: 8.67 ± 0.05 h
IC50 (RORγ [18]): 0.12 ± 0.03 µM

IC50 (RORγ [1]): 2.68 µM
IC50 (RORγ [2]): 4.16 µM
ΔTm (RORγ [3]): 1.5 °C
Compound: Nc1ccc(CC(=O)Nc2ccc(-c3ccc(C(O)(C(F)(F)F)C(F)(F)F)cc3F)cc2)cc1 [Example 5, 2-(4-aminophenyl)-N-(2′-fluoro-4′-(1,1,1,3,3,3-hexafluoro-2-hydroxypropan-2-yl)-[1,1′-biphenyl]-4-yl)acetamide]

Compound: CCCCC(=O)Nc1ccc(-c2ccc(C(O)(C(F)(F)F)C(F)(F)F)cc2F)cc1 [Example 7]
IC50 (RORγ [1]): 10.2 ± 1.61 µM
IC50 (RORγ [2]): 4.17 µM
ΔTm (RORγ [3]): 6.3 °C
